This is an account of results in PubChem BioAssay (NCI).

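Assay format: 96-well plates, 48-hour exposure. TGI is the concentration that stops growth completely.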

Holding throughout (assay): inhibition of tumour cell growth, NCI panel, 48 h
Assay [1] has as its system HOP-18 NSCLC.
For assay [2], the system named is M19-MEL melanoma.
Assay [3] concerns U251 CNS.
In assay [4] the test system is RXF 393 renal.
Assay [5] relates to UACC-62 melanoma.
Assay [6] has as its system HT29 colon.
Assay [7] deals with LXFL 529 NSCLC.
For assay [8], the system named is DMS 114 small cell lung.
In assay [9] the test system is KM20L2 colon.
Assay [10] deals with SK-MEL-28 melanoma.
For assay [11], the system named is XF 498 CNS.
The subject of assay [12] is SK-MEL-2 melanoma.
In assay [13] the test system is DMS 273 small cell lung.
Assay [14] relates to HOP-92 NSCLC.
The test system of assay [15] is DLD-1 colon.
Assay [16] concerns CAKI-1 renal.
Assay [17] has as its system A498 renal.
In assay [18] the test system is SNB-78 CNS.

Turning to `CC(C)C1COC(C(C)(C)C2=N[C@@H](C(C)C)CO2)=N1` (stereo partly drawn), the TGI in [1], in assay [2], in assay [3], in assay [4], in assay [5] and in [6] was over 100 µM each time. Moreover, the TGI in assay [7], in assay [8], in assay [9], in assay [10], in assay [11] and in [12] was over 100 µM throughout. Moreover, the TGI in [13], in [14] and in assay [15] was over 100 µM in each case.
`COc1ccc(C2S/C(=C\c3ccc([N+](=O)[O-])cc3)C(=O)N2NC(=O)Cc2ccccc2)cc1` (stereo not drawn): the TGI in [1], in [2], in [3], in [4], in assay [16] and in [5] was over 100 µM each time. For the same compound, the TGI in assay [6], in assay [7], in [8], in assay [10], in [17] and in [12] was over 100 µM each time. For the same compound, the TGI in assay [13], in assay [14] and in assay [15] was over 100 µM each time.
In the case of `COc1cc2c(cc1OC)C(Cc1cc(Br)c(OC)c(OC)c1)=[N+](C)CC2`, the TGI in [1], in assay [2], in [3], in assay [4], in assay [16] and in [5] was over 100 µM each time. In addition, the TGI in assay [6] is over 100 µM; in [7], over 100 µM; in [8], 57 µM; in [9], over 100 µM; in assay [10], over 100 µM; in [18] it was over 100 µM. The TGI in [12], in [14] and in assay [15] was over 100 µM throughout.
For the compound `O[C@]12c3ccccc3C1CCCC2N1CCOCC1` (stereo partly drawn), the TGI in assay [1], in assay [2], in assay [3], in assay [4], in assay [5] and in [6] was over 100 µM each time. The TGI in assay [7], in assay [8], in assay [9], in assay [10], in assay [18] and in assay [11] was over 100 µM in each case. Besides, the TGI in [12] and in assay [13] was over 100 µM in each case.
As to `CC1(C)OC2C(O1)[C@H]1OC(C(Cl)(Cl)Cl)=N[C@H]1C(I)[C@H]2N1C(=O)c2ccccc2C1=O` (stereo partly drawn), the TGI in assay [1] was over 100 µM; in assay [2] it was over 100 µM; in [3], over 100 µM; in [4] it was 88.6 µM; in assay [5], over 100 µM; in assay [6], over 100 µM. The TGI in assay [7], in assay [8], in [9], in [10], in [17] and in assay [18] was over 100 µM throughout. The TGI in assay [13], in assay [14] and in [15] was over 100 µM throughout.
Turning to `Cc1ccc([N+](=O)[O-])cc1NC(=O)/C(CC(=O)c1sc(C(N)=S)nc1C)=N\N`, the TGI in assay [1], in assay [2], in assay [3], in [4], in [16] and in assay [5] was over 100 µM each time. Also, the TGI in assay [6], in assay [7], in assay [8], in assay [9], in [10] and in [17] was over 100 µM in each case. Also, the TGI in assay [18], in [12], in assay [13], in [14] and in assay [15] was over 100 µM each time.
As for `N#CC(C(=S)Nc1ccccc1)=C1Nc2ccccc2N1`, the TGI in assay [1], in assay [2], in assay [3], in assay [16], in assay [5] and in assay [7] was over 10 µM in each case. Also, the TGI in assay [8], in assay [9], in assay [10], in assay [17], in [11] and in [12] was over 10 µM each time. Also, the TGI in assay [13], in [14] and in assay [15] was over 10 µM throughout.
For `CC1=C(c2ccccc2)CON(c2ccccc2)C1`, the TGI is over 100 µM in [2]; 69 µM in assay [3]; 86.2 µM in [4]; over 100 µM in [16]; over 100 µM in assay [5]; over 100 µM in [6]. Besides, the TGI was over 100 µM in assay [7]; over 100 µM in assay [8]; over 100 µM in assay [9]; 86.2 µM in [10]; over 100 µM in [18]; over 100 µM in [11]. The compound also had a TGI in assay [12] of over 100 µM.
In the case of `O=C1NC(=O)C23C(=O)NC(=O)C12C1C=CC3CC1` (stereo not drawn), the TGI in assay [3], in [4], in [16], in assay [5], in [6] and in assay [10] was over 10 µM in each case. The TGI in assay [17], in assay [12] and in [14] was over 10 µM throughout.
With `C#C[C@@H](OC(=O)c1ccc([N+](=O)[O-])cc1)[C@@H]1C[C@H]2O[C@@H]([C@H](C/C=C/CC)OC(=O)c3ccc([N+](=O)[O-])cc3)C[C@H]2O1`, the TGI in assay [3], in assay [4], in [16], in assay [5], in assay [6] and in [10] was over 100 µM each time. Further, the TGI in assay [17], in [12] and in assay [14] was over 100 µM each time.
For the compound `Cc1cc(=O)[nH]c(S(=O)(=O)NC(=O)Nc2cccc(Cl)c2)n1`, the TGI is over 100 µM in [3]; over 100 µM in assay [4]; over 22.3 µM in [16]; over 100 µM in assay [5]; over 100 µM in assay [6]; over 100 µM in assay [10]. Moreover, the TGI in assay [17], in assay [12] and in assay [14] was over 100 µM throughout.
With `COc1ccc(/C=N/NC(=O)CSc2nc(-c3ccccc3)c(-c3ccccc3)[nH]2)cc1OC`, the TGI in assay [2] was 35.3 µM; in [3], 57.8 µM; in assay [4], 52.7 µM; in assay [16] it was 72.9 µM; in assay [5] it was 40.5 µM; in assay [6], 60.3 µM. Further, the TGI was 55.1 µM in assay [7]; over 100 µM in [8]; 41.6 µM in [9]; 89.8 µM in assay [10]; 70 µM in [17]; 39.1 µM in assay [12]. Further, the TGI was 40.7 µM in assay [13], 84.6 µM in [14] and over 100 µM in assay [15].
For the compound `CCOC(=O)/C(=C/c1ccccc1)N(CC)CC`, the TGI in [2], in [3], in assay [16], in [5], in assay [6] and in assay [7] was over 100 µM in each case. Further, the TGI in [8], in [9], in assay [10], in assay [17], in [18] and in assay [11] was over 100 µM in each case. For the same compound, the TGI in [12], in assay [13] and in assay [14] was over 100 µM each time.
For `O=C(c1nc2ccc(Cl)cc2[nH]c1=O)C(O)c1ccco1` (stereo not drawn), the TGI in [1], in assay [2], in assay [4], in assay [16], in [5] and in assay [6] was over 100 µM in each case. For the same compound, the TGI in assay [7] is over 100 µM; in assay [8], over 100 µM; in assay [9], 85.1 µM; in assay [10], over 100 µM; in assay [12], over 100 µM; in [13] it was over 100 µM. Besides, the TGI in assay [14] and in [15] was over 100 µM in each case.
In the case of `CCC12CN(C(=O)OC)C3C(Br)C1CCC(=O)C32` (stereo not drawn), the TGI in assay [3], in assay [4], in assay [16], in assay [5], in assay [6] and in assay [10] was over 100 µM throughout. The TGI in assay [17], in assay [12] and in assay [14] was over 100 µM throughout.
On to `COC(=O)C1=C(C(=O)OC)N(c2ccncc2)C(c2ccco2)=CC1c1ccccc1[N+](=O)[O-]` (stereo not drawn), for which the TGI was found to be 10.7 µM in assay [3]; 10.6 µM in assay [4]; 31.6 µM in assay [16]; 27 µM in assay [5]; 3.95 µM in assay [6]; 27.2 µM in assay [10]. Moreover, the TGI was determined as 14.1 µM in assay [17], 36.1 µM in assay [12] and 32.4 µM in assay [14].
For the compound `CC(=S)NC=C(C(N)=O)C(N)=O`, the TGI in [3], in assay [4], in [16], in assay [5], in assay [6] and in assay [10] was over 100 µM each time. The TGI in assay [17], in assay [12] and in assay [14] was over 100 µM in each case.
Turning to `N#CC(C#N)=C(N)/C(C#N)=C/c1ccc(O)c(O)c1`, the TGI in [2], in assay [3], in [4], in [16], in assay [5] and in [6] was over 100 µM in each case. Besides, the TGI in assay [7], in assay [8], in assay [9], in assay [10], in assay [17] and in assay [18] was over 100 µM in each case. Further, the TGI in [11], in assay [12], in assay [13], in assay [14] and in [15] was over 100 µM in each case.
As for `COc1ccc(-n2nnc3c(C#N)c(C)c(-c4ccccc4)n3c2=O)cc1`, the TGI is over 41.5 µM in [3]; over 21.4 µM in assay [4]; over 100 µM in [16]; over 100 µM in assay [5]; over 100 µM in assay [6]; over 100 µM in assay [10]. The TGI in assay [17], in [12] and in assay [14] was over 100 µM each time.
For `CCOc1cc2cnc3c4cc(OC)c(OC)cc4ccc3c2cc1OC`, the TGI in [1], in assay [2], in assay [3], in assay [4], in assay [16] and in assay [5] was over 100 µM each time. Moreover, the TGI in assay [6], in assay [7], in assay [8], in assay [9], in assay [10] and in assay [18] was over 100 µM each time. The TGI in [12], in assay [14] and in assay [15] was over 100 µM in each case.
